Assay results from patent US12435097B2, “Arginase inhibitors and methods of use thereof” (AstraZeneca AB, priority 2019, dated 2025).
Like-named read-outs stand apart in the source and are kept apart here. Blank lines part the entries; values can stand above or below the compound they belong to.

Columns and labels:
Human Arginase 1 = biological target: T1, Human Arginase 1 (Homo sapiens, UniProt P05089); assay: Human Arginase 1 enzyme inhibition (thioarginine/DTNB absorbance at 412 nm); format: biochemical; details: recombinant enzyme from E. coli, 5 nM; 30 min pre-incubation, 60 min reaction
T1 construct: made in house; host or cells: E. coli
T1 sequence (P05089 1-322): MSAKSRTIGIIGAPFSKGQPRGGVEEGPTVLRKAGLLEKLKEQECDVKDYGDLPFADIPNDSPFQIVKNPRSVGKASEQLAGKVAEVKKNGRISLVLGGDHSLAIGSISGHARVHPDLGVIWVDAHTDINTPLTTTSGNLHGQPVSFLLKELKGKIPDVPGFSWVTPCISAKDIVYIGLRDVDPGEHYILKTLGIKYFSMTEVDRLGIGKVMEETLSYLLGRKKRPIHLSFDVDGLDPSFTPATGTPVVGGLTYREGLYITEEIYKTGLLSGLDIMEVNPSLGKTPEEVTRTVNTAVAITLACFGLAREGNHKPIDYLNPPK
From the text: (§1) The inhibitory effects of Examples 1 to 12 on the activity of Human Arginase 1 and Arginase 2 activity were quantified by measuring the formation of the thiol group from thioarginine using recombinant Arginase 1 or Arginase 2 produced from E. coli. The thiol group was detected with Ellman's reagent, 5,5′-dithiobis(2-nitrobenzoic acid) (DTNB). DTNB reacts with the thiol to give the mixed disulfide and 2-nitro-5-thiobenzoic acid (TNB) which is quantified by the absorbance of the anion (TNB^2−) at 412 nm.
(§2) The assays were run in clear 384 well plates (Greiner cat no: 781101). Various concentrations of Examples 1 to 12 in 300 nL DMSO were dispensed to assay plates using an Echo acoustic dispenser immediately followed by plate sealing and centrifugation. Two pre-mixes were prepared from reagents thawed immediately before addition to assay plates. Pre-mix one comprised human Arginase 1 or human Arginase 2, at a final concentration of 5 nM and 0.5 mM DTNB in assay buffer, 45 mM HEPES pH7.5, brij 35, 0.045% (w/v) and 100 μM MnCl2. Pre-mix two comprised freshly thawed 0.5 mM thioarginine in assay buffer. Fifteen microlitres of pre-mix one was dispensed to assay plates containing Examples 1 to 12, centrifuged and incubated for 30 minutes at room temperature prior to adding fifteen microlitres of pre-mix two.
(§3) Assay plates were centrifuged prior to reading absorbance at 412 nm in a Pherastar multi-mode plate reader to collect data at time point 0 (T0). The plates were incubated at room temperature for 60 min prior to reading again to collect data at time point 1 (T1). Data is derived by subtracting the A412 signal measured at T0 (time point 0) from that measured at T1 (time point 1). The data was transformed to % effect using the equation: Compound % effect=100*[(X−min)/(max−min)], where X represents the normalized value for the compound based on the Min (vehicle) and Max (reference compound) inhibition control.
(§4) The concentration of Examples 1 to 12 that inhibited the activity by 50% (i.e. the IC50) was calculated by plotting the % effect versus test compound concentration and fitting the data using the Genedata Screener Smart fit algorithm.

Human Arginase 2 = biological target: T2, Human Arginase 2 (Homo sapiens, UniProt P78540); assay: Human Arginase 2 enzyme inhibition (thioarginine/DTNB absorbance at 412 nm); format: biochemical; details: recombinant enzyme from E. coli, 5 nM; 30 min pre-incubation, 60 min reaction
T2 construct: made in house; host or cells: E. coli
T2 sequence (P78540 23-354): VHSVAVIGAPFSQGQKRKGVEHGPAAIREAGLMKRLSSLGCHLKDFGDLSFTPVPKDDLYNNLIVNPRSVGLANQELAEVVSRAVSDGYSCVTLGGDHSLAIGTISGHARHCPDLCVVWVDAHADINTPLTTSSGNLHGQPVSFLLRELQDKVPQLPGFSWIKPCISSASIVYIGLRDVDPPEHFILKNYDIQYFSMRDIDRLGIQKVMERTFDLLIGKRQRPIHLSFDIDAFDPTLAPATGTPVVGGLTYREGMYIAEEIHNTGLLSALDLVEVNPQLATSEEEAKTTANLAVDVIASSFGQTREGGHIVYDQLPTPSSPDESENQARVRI
From the text: as §1, §2, §3, §4

[1] = Bioavailability / pharmacokinetic study in male rats (IV and PO); format: in vivo; details: plasma; for clearance / Vd: male rat; for bioavailability / AUC / Cmax / Tmax: male, rat, po, 5 mg/kg; for Vd: read-out: Vdss
Experimental: Examples 2, 3, and 4 are prodrug forms of Example 1. […] Example 2 was formulated in 0.9% w/v saline pH 4 (adjusted with 1M HCl) for IV dosing. The formulation was dosed at 2 mg/kg by femoral catheter to two male rats each (170-250 g). Jugular vein catheter serial blood samples were taken at 0.033, 0.083, 0.167, 0.5, 1, 2, 4, 8, and 24 hrs post-dose. For PO dosing, Example 2 was formulated in deionized water pH 4 (adjusted with 1M HCl) and dosed at 5 mg/kg by oral gavage to two male rats each (170-250 g). Serial blood samples were taken by jugular vein catheter at 0.25, 0.5, 1, 1.5, 2, 3, 4, 8, and 24 hrs post dose. Plasma samples were generated from blood using low speed centrifugation. A single set of calibration standards containing Example 1 and Example 2 were prepared by spiking blank plasma. The samples and standards were extracted by precipitation with two volumes of acetonitrile followed by centrifugation. The results obtained were used to determine the Cl (mL/min/kg), Vdss (L/kg), Cmax (μM), AUC (μM h), tmax (h), and % F for both Example 1 and Example 2. Absolute bioavailability was determined by comparing the PO dose normalized AUC of Example 1 when dosed as Example 2, versus the dose normalized IV AUC of Example 1 when dosed as Example 1. Where appropriate, measured and not nominal doses were used to calculate bioavailability. In an analogous fashion, the same procedure was repeated for Examples 3 and 4.

[2] = IV 2 mg/kg, pro-drug measured when dosed as pro-drug
[3] = PO 5 mg/kg vs IV 2 mg/kg, pro-drug measured when dosed as pro-drug
[4] = PO 5 mg/kg, pro-drug measured when dosed as pro-drug
[5] = PO 5 mg/kg of Example 2, Example 1 measured when dosed as pro-drug
[6] = PO dosing of Example 3, Example 1 measured when dosed as pro-drug
[7] = PO dosing of Example 4, Example 1 measured when dosed as pro-drug

SMILES: CC[C@H](N)C(=O)N[C@H]1CCN[C@@](CCCCB(O)O)(C(=O)O)C1 [Example 5, (2R,4S)-4-[[(2S)-2-aminobutanoyl]amino]-2-(4-boronobutyl)piperidine-2-carboxylic acid]
IC50 (Human Arginase 1): 25 nM
IC50 (Human Arginase 2): 21 nM

SMILES: CC(C)C[C@H](N)C(=O)N[C@H]1CCN[C@@](CCCCB(O)O)(C(=O)O)C1 [Example 6, (2R,4S)-4-[[(2S)-2-amino-4-methyl-pentanoyl]amino]-2-(4-boronobutyl)piperidine-2-carboxylic acid]
IC50 (Human Arginase 1): 18 nM
IC50 (Human Arginase 2): 15 nM

SMILES: C[C@H](N)C(=O)N[C@H]1CCN[C@@](CCCCB(O)O)(C(=O)O)C1 [Example 4, (2R,4S)-4-[[(2S)-2-aminopropanoyl]amino]-2-(4-boronobutyl)piperidine-2-carboxylic acid]
IC50 (Human Arginase 1): 35 nM
IC50 (Human Arginase 2): 27 nM
clearance [1, 2]: 180 mL/min/kg

SMILES: NCC(=O)N[C@H]1CCN[C@@](CCCCB(O)O)(C(=O)O)C1 [Example 3, (2R,4S)-4-(2-aminoacetamido)-2-(4-boronobutyl)piperidine-2-carboxylic acid]
IC50 (Human Arginase 1): 80 nM
IC50 (Human Arginase 2): 59 nM
bioavailability [1, 3]: 5.2%
AUC [1, 4]: 1.1 µM·h
Cmax [1, 4]: 640 nM
Tmax [1, 4]: 0.75 h
clearance [1, 2]: 13.5 mL/min/kg
Vd [1, 2]: 0.22 L/kg

SMILES: N[C@H]1CCN[C@@](CCCCB(O)O)(C(=O)O)C1 [Example 1, (2R,4S)-4-amino-2-(4-boronobutyl)piperidine-2-carboxylic acid]
IC50 (Human Arginase 1): 3 nM
IC50 (Human Arginase 2): 4 nM
bioavailability ([1]; Example 1 after PO Example 2 vs IV AUC of Example 1 dosed as Example 1, dose normalized): 82%
bioavailability ([1]; Example 1 after PO Example 3 vs IV AUC of Example 1 dosed as Example 1, dose normalized): 78%
bioavailability ([1]; Example 1 after PO Example 4 vs IV AUC of Example 1 dosed as Example 1, dose normalized): 20%
AUC [1, 5]: 23.7 µM·h
Cmax [1, 5]: 2500 nM
Tmax [1, 5]: 2.3 h
AUC [1, 6]: 25.7 µM·h
Cmax [1, 6]: 2000 nM
Tmax [1, 6]: 2.5 h
AUC [1, 7]: 6.1 µM·h
Cmax [1, 7]: 1000 nM
Tmax [1, 7]: 1.5 h
clearance ([1]; IV, Example 1 dosed as payload): 8.5 mL/min/kg
Vd ([1]; IV, Example 1 dosed as payload): 0.23 L/kg

SMILES: CC(C)[C@H](N)C(=O)N[C@H]1CCN[C@@](CCCCB(O)O)(C(=O)O)C1 [Example 2, (2R,4S)-4-((S)-2-amino-3-methylbutanamido)-2-(4-boronobutyl)piperidine-2-carboxylic acid]
IC50 (Human Arginase 1): 29 nM
IC50 (Human Arginase 2): 24 nM
bioavailability [1, 3]: 2%
AUC [1, 4]: 0.29 µM·h
Cmax [1, 4]: 350 nM
Tmax [1, 4]: 0.25 h
clearance [1, 2]: 16.3 mL/min/kg
Vd [1, 2]: 0.25 L/kg

Continued, values first:

IC50 (Human Arginase 1): 234 nM
IC50 (Human Arginase 2): 180 nM
SMILES: CC(C)[C@@H](N)C(=O)N[C@H]1CCN[C@@](CCCCB(O)O)(C(=O)O)C1 [Example 9, (2R,4S)-4-[[(2R)-2-amino-3-methyl-butanoyl]amino]-2-(4-boronobutyl)piperidine-2-carboxylic acid]

IC50 (Human Arginase 1): 23 nM
IC50 (Human Arginase 2): 21 nM
SMILES: CC[C@H](C)[C@H](N)C(=O)N[C@H]1CCN[C@@](CCCCB(O)O)(C(=O)O)C1 [Example 7, (2R,4S)-4-[[(2S,3S)-2-amino-3-methyl-pentanoyl]amino]-2-(4-boronobutyl)piperidine-2-carboxylic acid]

IC50 (Human Arginase 1): 20100 nM
IC50 (Human Arginase 2): 53100 nM
SMILES: N[C@H]1CCN[C@](CCCCB(O)O)(C(=O)O)C1 (single isomer, unassigned; enantiomer 1) [Example 10, Anti-4-amino-2-(4-boronobutyl)piperidine-2-carboxylic acid enantiomer 1]

IC50 (Human Arginase 1): 2200 nM
IC50 (Human Arginase 2): 2540 nM
SMILES: N[C@@H]1CCN[C@](CCCCB(O)O)(C(=O)O)C1 (single isomer, unassigned) [Example 12]

IC50 (Human Arginase 1): 31 nM
IC50 (Human Arginase 2): 24 nM
SMILES: CC(C)(C)[C@H](N)C(=O)N[C@H]1CCN[C@@](CCCCB(O)O)(C(=O)O)C1 [Example 8, (2R,4S)-4-[[(2S)-2-amino-3,3-dimethyl-butanoyl]amino]-2-(4-boronobutyl)piperidine-2-carboxylic acid]

IC50 (Human Arginase 1): 3150 nM
IC50 (Human Arginase 2): 4370 nM
SMILES: N[C@H]1CCN[C@](CCCCB(O)O)(C(=O)O)C1 (single isomer, unassigned; enantiomer 2) [Example 11, anti-4-amino-2-(4-boronobutyl)piperidine-2-carboxylic acid enantiomer 2]
